Molecular target: Purified rat PKC
Test: PKC kinase assay (Kinase-Glo ATP consumption)
Format: biochemical
Conditions: 1 μM ATP; read-out: Kinase Inhibiting Activity (IC50) PKC
Description: Purified rat PKC (containing PKCα, β, and γ and small amounts of δ and ξ isoforms, Promega) was used to evaluate its activity to phosphorylate a substrate peptide (AAKIQASFRGHMARKK, Promega).
In a system of the total volume of 50 μL, the reaction of the above-mentioned enzyme (5 ng) was carried out at room temperature for 80 minutes in the presence of 20 mM of Tris-HCl (pH 7.5), 20 mM of magnesium chloride, 0.4 mM of calcium chloride, 0.1 mg/mL of BSA, 0.25 mM of EGTA, 0.5 mg/mL of phosphatidylserine (Sigma), 0.05 mg/mL of 1,2-dioctanoyl-sn-glycerol (Sigma), 10 μM of the above peptide, and 1 μM of ATP. After the kinase reaction, the luminescence intensity corresponding to the amount of ATP in the reaction system was measured using a luciferase reagent (Kinase-Glo Luminescent Kinase Assay kit, Promega) with a chemiluminescence measurement apparatus (MicroLumat, Berthold Technologies). The amount of ATP consumed by the phosphorylation reaction was calculated by comparison with the luminescence intensity in the system when the kinase reaction was not carried out.
With this system, the kinase reaction was carried out in the presence of a compound at various concentrations, and the IC50 value of the compound was determined based on the resulting compound concentration-response curve for ATP consumption.

Q: Which IC50 does the source give for `CNCC(=O)N1CCCN(S(=O)(=O)c2cccc3cncc(F)c23)[C@@H](C)C1.Cl.Cl` [Example 2, 2-(S)-1-(4-fluoroisoquinoline-5-sulfonyl)-2-methyl-4-(N-methylglycyl)homopiperazine dihydrochloride] here?
A: The IC50 was over 100 µM.

Q: “2-(S)-1-(4-fluoroisoquinoline-5-sulfonyl)-4-glycyl-2-methylhomopiperazine dihydrochloride [Example 1]” was tested. Which IC50 did it give?
A: The IC50 was over 100 µM.

Source: US20090306053A1, “Highly selective rho-kinase inhibitor” (priority 2005, published 2009)
